Patent US20240116952A1, “KRAS INHIBITOR AND PHARMACEUTICAL USES THEREOF” (RISEN (SUZHOU) PHARMA TECH CO., LTD., priority 2022, published 2024)
Values joined by “and” are separate entries in the source; they are usually repeats but may differ in a detail not shown here. Equal values may be shown once. Read-outs that look alike come from different tables or passages of the source.

Tests used:
[1] = test system: AsPC-1 pancreatic cancer cells; assay: Efficacy study in mouse AsPC-1 CDX model, compounds given orally; type: in vivo, Balb/C nude mice; settings: BID; for effect on mouse body weight: given orally; for TGI (%): oral, Compound A1 100 mg/kg for 12 days, Compound 1 126 mg/kg (molar equivalent) for 16 days
Experimental: (§1) Balb/C nude mice, aged 6-8 weeks, were inoculated subcutaneously with 5×10^6 AsPC-1 pancreatic cancer cells, in 0.1 ml PBS. Eleven days post-inoculation, tumor bearing animals were randomized into Vehicle (four mice), Compound A1 (four mice) and Compound 1 (five mice), followed by oral dosing twice daily at 100 mg/kg for Compound A1 and 126 mg/kg for Compound 1 (Table 6). Tumor volume was measured every three days using a caliper, and tumor size was calculated using the formula TV=length×width^2×0.5. Tumor growth inhibition (TGI) was calculated using the given formula TGI=[1−(Vtx_t−Vtx_0)/(Vct_t−Vct_0)]×100%, where Vtx_t means tumor volume in treatment group measured at time point t, Vtx_0 means tumor volume of treatment group measured at time point 0, Vct_t means tumor volume of vehicle group measured at time point t, and Vct_0 means tumor volume of vehicle group measured at time point 0.

[2] = Mouse PK study: blood AUC of compound A1 after oral or intravenous administration; type: in vivo; settings: ICR mice, equimolar dose
Experimental: A total 126 ICR mice (male, 30-34 g) were randomly divided into 42 groups with 3 animals/group (oral or intravenous administration). Blood samples were collected at 0.167, 0.5, 1, 2, 4, 6, 8, and 24 hours post-dose for oral group and 0.083, 0.25, 0.5, 1, 2, 4, 6, and 8 hours post-dose for intravenous group. The test compounds were dissolved into vehicle solutions (5% DMSO+5% Solutol+90% 20% SBE-β-CD solvents).
Animals were administered with compound A1 or exemplary test compounds by intravenous bolus administration at 3 mg/kg (equimolar dose to compound A1) and oral administration at 10 mg/kg (equimolar dose to compound A1) after fasted 12 hours, respectively. Post-dose blood samples were collected at preset time point (50 μL/animal/time point), and 20 μL blood was accurately separated into 200 μL eppendorf (EP) tube containing acetonitrile and internal standard. The supernatant was prepared by centrifuging the blood samples at approximately 4° C., 12000 rpm for 5 minutes. All samples were then quickly frozen over dry ice and kept at −60° C. or lower until analysis. The supernatant was analyzed by LC-MS/MS to detect the concentration of test compounds and metabolites.

[3] = test system: GP2D colonrectal cancer cells; type: in vivo; settings: for TGI (%): 21 days
Experimental: After Balb/C nude mice (aged 6-8 weeks) were inoculated subcutaneously with 5×10^6 GP2D colonrectal cancer cells, in 0.1 ml PBS, they were grouped 11 days post-inoculation and treated with intraperitoneal injections of the given compounds for 21 days. Note that Compound 52 at 40.3 mg/kg and Compound 53 at 43 mg/kg are molar equivalent to 18 mg/kg of Compound A1. Tumor volume and TGI were measured and calculated as described before (Table 8).
Balb/C nude mice, aged 6-8 weeks, were inoculated subcutaneously with 5×10^6 GP2D colonrectal cancer cells, in 0.1 ml PBS. Eleven days post the inoculation, tumor bearing animals were randomly grouped based on given compounds and vehicle. Compound A1, as positive control, was IP administered at 18 mg/kg qd for 21 days. Compound 52 at 40.3 mg/kg (molar equivalent to 18 mg/kg of Compound A1) was IV administered q3d, and subsequently switched to 27 mg/kg for 21 days. Compound 53 at 43 mg/kg (molar equivalent to 18 mg/kg of Compound A1) was either IV or IP dosed q3d for 21 days (Table 8).

AsPC-1 cells = assay: Tumor growth inhibition in mouse AsPC-1 CDX model, compounds given parenterally (IP/IV); type: in vivo; settings: for TGI (%): 27 days; for tumor growth inhibition compared to vehicle control: FIG. 6
Experimental: as §1
Balb/C nude mice bearing tumors derived from AsPC-1 cells as described previously, were grouped into Vehicle intraperitoneal (IP) (five mice), Compound A1 IP (five mice), Compound A1 intravenous (IV) (three mice), Compound 52 IP (five mice) and Compound 52 IV injections (six mice). All compounds were administered once daily at equal molarity (Compound A1, 6 mg/kg) for 27 days. Tumor volume was measured and calculated as described previously.

[4] = IP, qd, Compound A1 18 mg/kg, Compound 52 40.3 mg/kg (molar equivalent)
[5] = IP, qd, Compound A1 6 mg/kg, Compound 52 13.44 mg/kg (molar equivalent)

Compound	effect on mouse body weight [1]	TGI (%) [1]	TGI (%) [3, 4] [%]	TGI (%) (AsPC-1 cells; [5])	tumor growth inhibition compared to vehicle control (AsPC-1 cells; intraperitoneal administration)	further results
C#Cc1c(F)ccc2cc(O)cc(-c3ncc4c(N5CC6CCC(C5)N6C(=O)OC(C)OC(=O)CCC)nc(OC[C@@]56CCCN5C[C@H](F)C6)nc4c3F)c12 (stereo partly drawn) [Compound 1]	Neither Compound 1 nor A1 adversely affected mouse body weight	53.5% and 53.95%	–	–	–	–
C#Cc1c(F)ccc2cc(O)cc(-c3ncc4c(N5CC6CCC(C5)N6C(=O)OC(C)OC(=O)CC(C)C)nc(OC[C@@]56CCCN5C[C@H](F)C6)nc4c3F)c12 (stereo partly drawn) [Compound 10]	–	–	–	–	–	AUC of A1 increased compared to direct oral administration of A1 [2]: more than 8.5 times
C#Cc1c(F)ccc2cc(OC(=O)OC(COC(=O)CCCCCCCC)COC(=O)CCCCCCCC)cc(-c3ncc4c(N5CC6CCC(C5)N6)nc(OC[C@@]56CCCN5C[C@H](F)C6)nc4c3F)c12 [Compound 52]	–	–	87.1	36.12	significant tumor growth inhibition	body weight of mice ([3]; IV 27 mg/kg once every 3 days): remained normal; TGI (%) ([3]; IV, q3d, 27 mg/kg (molar equivalent to 12 mg/kg A1)): 80.0%; death of recipient animals ([3]; intravenously dosed at 40.3 mg/kg (molar equivalent to 18 mg/kg A1)): 50%; growth inhibition of tumors harboring the KRAS^G12D mutation ([3]; parenterally administered with the dosages of Table 8): significant growth inhibition; TGI (%) (AsPC-1 cells; IV, qd, Compound 52 13.44 mg/kg (molar equivalent to 6 mg/kg A1)): 47.22%; tumor growth inhibition compared to vehicle control (AsPC-1 cells; intravenous injection): significant tumor growth inhibition
C#Cc1c(F)ccc2cc(O)cc(-c3ncc4c(N5CC6CCC(C5)N6)nc(OC[C@@]56CCCN5C[C@H](F)C6)nc4c3F)c12 [Compound A1, reference compound]	Neither Compound 1 nor A1 adversely affected mouse body weight	9.07%	85.0	37.27	significant tumor growth inhibition	animal death observed (footnote D in TGI column) (AsPC-1 cells; IV, qd, Compound A1 6 mg/kg, 3 mice): caused the death of all mice within 24 hours
